US10064913B2, “Immunotherapy against several tumors including gastrointestinal and gastric cancer” (IMMATICS BIOTECHNOLOGIES GMBH, priority 2010, dated 2018)

Columns and labels:
CD8+ T cells [1] = assay: In vitro immunogenicity of HLA-A*0201 restricted TUMAPs (aAPC priming of CD8+ T cells, multimer staining); format: cell-based, human; conditions: HLA-A*0201 peptides, CD8+ T cells from HLA-A*2 buffy coats of healthy donors, three stimulation cycles
Source text: (§1) In order to perform in vitro stimulations by artificial antigen presenting cells (aAPC) loaded with peptide-MHC complex (pMHC) and anti-CD28 antibody, we first isolated CD8 T cells from fresh HLA-A*24 leukapheresis products or from HLA-A*2 buffy coats of healthy donors obtained from the Blood Bank Tuebingen.
(§2) CD8 T cells were either directly enriched or PBMCs (peripheral blood mononuclear cells) were isolated first by using standard gradient separation medium (PAA, Colbe, Germany). Isolated CD8 lymphocytes or PBMCs were incubated until use in T-cell medium (TCM) consisting of RPMI-Glutamax (Invitrogen, Karlsruhe, Germany) supplemented with 10% heat inactivated human AB serum (PAN-Biotech, Aidenbach, Germany), 100 U/ml Penicillin/100 μg/ml Streptomycin (Cambrex, Cologne, Germany), 1 mM sodium pyruvate (CC Pro, Oberdorla, Germany), 20 μg/ml Gentamycin (Cambrex). […] Isolation of CD8+ lymphocytes was performed by positive selection using CD8 MicroBeads (Miltenyi Biotec, Bergisch-Gladbach, Germany).
(§3) 800.000 beads/200 μl were coated in 96-well plates in the presence of 600 ng biotin-anti-CD28 plus 200 ng relevant biotin-pMHC (high density beads). […] Half of the medium was then exchanged by fresh TCM supplemented with 80 U/ml IL-2 and incubation was continued for 3-4 days at 37° C. This stimulation cycle was performed for a total of three times.
(§4) In vitro priming of specific multimer+CD8+ lymphocytes was detected by appropriate gating and by comparing to negative control stimulations.

[2] = peptide included in vaccines IMA901 and IMA910, described in other applications by immatics; cited from earlier work
CD8+ T cells [3] = assay: In vitro immunogenicity of HLA-A*2402 restricted TUMAPs (aAPC priming of CD8+ T cells, multimer staining); format: cell-based, human; conditions: HLA-A*2402 peptides, CD8+ T cells of healthy HLA-A*24 donors, three stimulation cycles with pMHC/anti-CD28 beads
Source text: as §1, §2, §3, §4

Sequence	Donors positive/evaluable [%] (CD8+ T cells [1])	Wells positive/evaluable [%] (CD8+ T cells [1])	in vivo reactions [2]	Wells positive/evaluable [%] (CD8+ T cells [3]; at least 48 wells evaluable)	Donors positive/evaluable [%] (CD8+ T cells [3]; at least four donors evaluable)
KIFDEILVNA (listed as Homo sapiens) [TOP-001]	40	10			
KIQEILTQV (listed as Homo sapiens) [IGF2BP3-001]	50	21			
YVDPVITSI (listed as Homo sapiens) [MET-001]	67	42	extremely good in vivo reactions		
YYYVGFAYL (listed as Homo sapiens) [EIF3L-001]				29	100
